From US10166237B2, “Compounds and methods for inducing chondrogenesis” (The Scripps Research Institute, priority 2011, dated 2019)

System: human mesenchymal stem cells (hMSCs)
Assay: chondrogenic nodule formation by hMSCs (high throughput screen)
Format: cell-based
Conditions: for EC50: Homo sapiens, Mesenchymal stem cells, first value of the cell (before the slash), read-out: CHONDROGENIC μM EC50
Description: The primary screening assay was based upon the development of chondrogenic nodules. Chondrocytes can grow in monolayer in vitro, but to more closely mimic their native environment in the joint, the cells are routinely cultured in non-adherent conditions such as in pellet cultures or alginate bead suspensions.
In the actual screen of a library of 22,000 structurally diverse heterocycles, 10^4 primary hMSCs were plated in 384 well plates in serum free DMEM. The cells were treated with 5 μM of each compound and incubated for 4 days. […] To facilitate high throughput imaged-based detection, the chondrogenic nodules were stained with […]. The Nile Red stained nodules were quantified on an Acumen eX3 (high content imaging device) by excitation with a 488 laser for rapid detection of the nodules.
Primary hMSCs grown in a 96 well Greiner plates (50,000/well) were incubated for 4 days in the presence of the 5 uM of each DMSO or 100 nM of PRO1. On day 4, the cells were fixed with 4% formalin for 10 minutes, washed and stained with 1 μg/ml of Rhodamine B for 2 hours at room temperature.

Row | SMILES | Activity (chondrogenic nodules formed in % of cells) | EC50 [µM]
1 | N#Cc1ccc(NC(=O)c2ccccc2C#N)cc1 [Compound A01] | ** (chondrogenic nodules formed in at least 25% but less than 50% of cells) | 
2 | N#Cc1ccc(NC(=O)c2ccccc2CC(=O)O)cc1 [Compound A06] | *** (chondrogenic nodules formed in at least 50% but less than 75% of cells) | 
3 | CC(=O)c1ccccc1C(=O)Nc1ccc(C#N)cc1 [Compound A09] | ** (chondrogenic nodules formed in at least 25% but less than 50% of cells) | 
4 | COC(=O)Nc1ccccc1C(=O)Nc1ccc(C#N)cc1 [Compound A11] | ** (chondrogenic nodules formed in at least 25% but less than 50% of cells) | 
5 | N#Cc1ccc(NC(=O)c2ccccc2NC(N)=O)cc1 [Compound A12] | ** (chondrogenic nodules formed in at least 25% but less than 50% of cells) | 
6 | CS(=O)(=O)Nc1ccccc1C(=O)Nc1ccc(C#N)cc1 [Compound A13] | ** (chondrogenic nodules formed in at least 25% but less than 50% of cells) | 
7 | N#Cc1ccc(NC(=O)c2ccccc2S(=O)(=O)O)cc1 [Compound A22] | ** (chondrogenic nodules formed in at least 25% but less than 50% of cells) | 
8 | N#Cc1ccc(NC(=O)c2ccccc2S(N)(=O)=O)cc1 [Compound A23] | ** (chondrogenic nodules formed in at least 25% but less than 50% of cells) | 
9 | CNS(=O)(=O)c1ccccc1C(=O)Nc1ccc(C#N)cc1 [Compound A24] | ** (chondrogenic nodules formed in at least 25% but less than 50% of cells) | 
10 | N#Cc1ccc(NC(=O)c2ccc(C#N)cc2C(=O)O)cc1 [Compound B02] | ** (chondrogenic nodules formed in at least 25% but less than 50% of cells) | 
11 | N#Cc1ccc(NC(=O)c2cc(C#N)ccc2C(=O)O)cc1 [Compound B03, sodium 4-cyano-2-[(4-cyanophenyl)carbamoyl]benzoate] | *** (chondrogenic nodules formed in at least 50% but less than 75% of cells) | 
12 | N#Cc1ccc(NC(=O)c2ccc(C(=O)O)cc2C(=O)O)cc1 [Compound B10] | ** (chondrogenic nodules formed in at least 25% but less than 50% of cells) | 
13 | N#Cc1ccc(NC(=O)c2c(C(=O)O)cccc2C(=O)O)cc1 [Compound B12] | ** (chondrogenic nodules formed in at least 25% but less than 50% of cells) | 
14 | N#Cc1ccc(NC(=O)c2ccncc2C(=O)O)cc1 [Compound B19] | *** (chondrogenic nodules formed in at least 50% but less than 75% of cells) | 
15 | N#Cc1ccc(NC(=O)c2cccnc2C(=O)O)cc1 [Compound B20] | ** (chondrogenic nodules formed in at least 25% but less than 50% of cells) | 
16 | N#Cc1ccc(NC(=O)c2ccccc2-c2ccccc2C(=O)O)cc1 [Compound B32] | ** (chondrogenic nodules formed in at least 25% but less than 50% of cells) | 
17 | O=C(O)c1ccccc1C(=O)Nc1ccncc1 [Compound N01] | *** (chondrogenic nodules formed in at least 50% but less than 75% of cells) | 
18 | O=C(O)c1ccccc1C(=O)Nc1ccccc1OC(F)F [Compound N04] | *** (chondrogenic nodules formed in at least 50% but less than 75% of cells) | 
19 | O=C(O)c1ccccc1C(=O)Nc1cccc(OC(F)F)c1 [Compound N05] | ** (chondrogenic nodules formed in at least 25% but less than 50% of cells) | 
20 | CC(=O)c1cccc(NC(=O)c2ccccc2C(=O)O)c1 [Compound N08] | **** (chondrogenic nodules formed in at least 75% of cells) | 
21 | CC(=O)c1ccc(NC(=O)c2ccccc2C(=O)O)cc1 [Compound N09] | ** (chondrogenic nodules formed in at least 25% but less than 50% of cells) | 
22 | NC(=O)c1ccccc1NC(=O)c1ccccc1C(=O)O [Compound N10] | ** (chondrogenic nodules formed in at least 25% but less than 50% of cells) | 
23 | NC(=O)c1cccc(NC(=O)c2ccccc2C(=O)O)c1 [Compound N11] | ** (chondrogenic nodules formed in at least 25% but less than 50% of cells) | 
24 | O=C(O)c1ccccc1NC(=O)c1ccccc1C(=O)O [Compound N13] | ** (chondrogenic nodules formed in at least 25% but less than 50% of cells) | 
25 | O=C(O)c1cccc(NC(=O)c2ccccc2C(=O)O)c1 [Compound N14] | ** (chondrogenic nodules formed in at least 25% but less than 50% of cells) | 

Row | SMILES | Activity (chondrogenic nodules formed in % of cells) | EC50 [µM]
26 | NS(=O)(=O)c1cccc(NC(=O)c2ccccc2C(=O)O)c1 [Compound N17] | ** (chondrogenic nodules formed in at least 25% but less than 50% of cells) | 
27 | N#Cc1cccc(NC(=O)c2ccccc2C(=O)O)c1 [Compound N19] | *** (chondrogenic nodules formed in at least 50% but less than 75% of cells) | 
28 | O=C(O)c1ccccc1C(=O)Nc1ccccc1CO [Compound N20] | ** (chondrogenic nodules formed in at least 25% but less than 50% of cells) | 
29 | CNCc1cccc(NC(=O)c2ccccc2C(=O)O)c1 [Compound N24] | *** (chondrogenic nodules formed in at least 50% but less than 75% of cells) | 
30 | O=C(O)c1ccccc1C(=O)Nc1ccc(CCO)cc1 [Compound N26] | *** (chondrogenic nodules formed in at least 50% but less than 75% of cells) | 
31 | O=C(O)c1ccccc1C(=O)Nc1ccc(N2CCOCC2)cc1 [Compound N28] | ** (chondrogenic nodules formed in at least 25% but less than 50% of cells) | 
32 | N#CC1CCC(NC(=O)c2ccccc2C(=O)O)CC1 (stereo not shown) [Compound N30] | ** (chondrogenic nodules formed in at least 25% but less than 50% of cells) | 
33 | O=C(O)c1ccccc1C(=O)NC1CCC(C(=O)O)CC1 (stereo not shown) [Compound N31] | ** (chondrogenic nodules formed in at least 25% but less than 50% of cells) | 
34 | O=C(O)c1ccccc1C(=O)NCC1CCC(C(=O)O)CC1 (stereo not shown) [Compound N33] | ** (chondrogenic nodules formed in at least 25% but less than 50% of cells) | 
35 | O=C(O)c1ccccc1C(=O)Nc1ncc[nH]1 [Compound N34] | ** (chondrogenic nodules formed in at least 25% but less than 50% of cells) | 
36 | O=C(O)c1ccccc1C(=O)Nc1ncco1 [Compound N35] | ** (chondrogenic nodules formed in at least 25% but less than 50% of cells) | 
37 | O=C(O)c1ccccc1C(=O)Nc1nc(-c2ccccc2)co1 [Compound N38] | ** (chondrogenic nodules formed in at least 25% but less than 50% of cells) | 
38 | O=C(O)c1ccccc1C(=O)Nc1nc(-c2ccccc2)cs1 [Compound N39] | ** (chondrogenic nodules formed in at least 25% but less than 50% of cells) | 
39 | O=C(O)c1ccccc1C(=O)Nc1cncs1 [Compound N42] | *** (chondrogenic nodules formed in at least 50% but less than 75% of cells) | 
40 | O=C(O)c1ccccc1C(=O)Nc1cnc(-c2ccccc2)s1 [Compound N45] | *** (chondrogenic nodules formed in at least 50% but less than 75% of cells) | 
41 | O=C(O)c1ccccc1C(=O)Nc1ncccn1 [Compound N50] | ** (chondrogenic nodules formed in at least 25% but less than 50% of cells) | 
42 | O=C(O)c1ccccc1C(=O)Nc1cnccn1 [Compound N52] | ** (chondrogenic nodules formed in at least 25% but less than 50% of cells) | 
43 | N#Cc1cccc2[nH]c(-c3ccccc3C(=O)O)nc12 [Compound R01] | ** (chondrogenic nodules formed in at least 25% but less than 50% of cells) | 
44 | N#Cc1ccc2nc(-c3ccccc3C(=O)O)sc2c1 [Compound R06-1] | ** (chondrogenic nodules formed in at least 25% but less than 50% of cells) | 
45 | N#Cc1ccc(S(=O)(=O)Nc2ccccc2C(=O)O)cc1 [Compound R07] | ** (chondrogenic nodules formed in at least 25% but less than 50% of cells) | 
46 | N#Cc1ccc(NC(=O)Nc2ccccc2C(=O)O)cc1 [Compound R10] | ** (chondrogenic nodules formed in at least 25% but less than 50% of cells) | 
47 | N#Cc1ccccc1NC(=O)c1ccccc1C(=O)O [LK13b] |  | > 10
48 | O=C(O)c1ccccc1C(=O)Nc1nnc(-c2ccccc2)s1 [LK57, 2-((5-phenyl-1,3,4-thiadiazol-2-yl)carbamoyl)benzoic acid] |  | > 10
49 | O=C(O)c1ccccc1CNC(=O)c1ccccc1C(=O)O [MS01] | *** (chondrogenic nodules formed in at least 50% but less than 75% of cells) | 
